US9187762B2, “Compositions and methods comprising sequences having hydroxyphenylpyruvate dioxygenase (HPPD) activity” (PIONEER HI-BRED INTERNATIONAL, INC., priority 2010, dated 2015)

What was measured:
[1] = system: soybean plants; test: Herbicide spray tests of transgenic HPPD soy plants (T1/T2) with multiple HPPD-inhibitor herbicides, visual injury; type: in vivo; details: for Soybean Response (% Injury): Elite Line Nontransgenic, foliar, V1 stage; for Soybean Response (% Injury), Null: T1 soybean PHP45921A D0223903 SEQ ID NO: 3, null segregants; for Soybean Response (% Injury), Positive: T1 soybean PHP45921A D0223903 SEQ ID NO: 3, positive segregants
Protocol: T1 plants were evaluated for zygosity. Homozygous single-locus transgenic plants and their corresponding null segregants were identified and T2 true breeding seed was obtained from each. Plants were grown to the V1 to V2 growth stage and then sprayed with the commercial formulation of mesotrione, tembotrione, topramezone, and isoxaflutole. All treatments were applied with nonionic surfactant and ammonium sulfate in a spray volume of 374 L/ha. Multiple rates of each herbicide were applied so a response range could be used to compare the relative tolerance of the different herbicides as well as the relative tolerance of homozygous nulls and positives for each event. The herbicide response for individual treated plants was evaluated by comparing to untreated plants of similar genetic background. Herbicide response ratings were eight days after treatment. Visual injury was on a scale of 0 to 100% injury (0=no effect to 100=dead plant).
T1 soybean plants expressing D0223903 (SEQ ID NO: 3) driven by a synthetic promoter (as described in U.S. Pat. No. 6,072,050) were evaluated with qPCR for the presence of the transgene and null and positive segregants selected. Plants were sprayed at the V1 growth stage with the commercial formulations of mesotrione, tembotrione, topramezone, and isoxaflutole. Two rates of each herbicide were applied foliarly with nonionic surfactant and ammonium sulfate in a spray volume of 374 L/ha. The herbicide response for individual plants was determined by comparing to untreated plants of similar genetic background. Visual injury was on a scale of 0 to 100% injury (0=no effect to 100=dead plant).

[2] = system: maize HPPD; test: ON rate ratio, OFF rate ratio and insensitivity parameter with herbicidal HPPD inhibitors; type: biochemical; details: maize HPPD
Excerpt: To devise a parameter for detecting changes in inhibitor binding affinity, KD, one can utilize the relationship between KD and the rates of binding and release of inhibitor to and from the enzyme. [formula] Higher KD (reduced affinity or increased insensitivity) can be attained with a numerically smaller ON rate, a larger OFF rate or both. […] The ratio of the reaction rate with inhibitor to that without inhibitor during the 70 to 90 second interval of the reaction was termed the “ON rate ratio”. […] Incubations with the same concentrations of enzyme but no mesotrione were done in parallel. After 1 hr at room temperature, 5 to 10 ul of the enzyme-inhibitor complex was dispensed into the wells of the assay plate. Reactions were started with the addition of 290 to 295 ul of 25 mM Hepes, pH 7, 2 mM ascorbate, 10 uM FeSO4, 100 uM HPP and 50 nM HGD. The reactions were monitored at 320 nm for 12 min. Reaction velocity accelerates as inhibitor is released from the enzyme until a steady state is reached, during which the reaction velocity is constant. The ratio of the steady state rate in mixtures containing mesotrione (or other herbicidal inhibitor) to the initial velocity of mixtures lacking inhibitor is termed the “OFF rate ratio”. Another parameter to record is the time span required for the reactions with inhibitor to reach the steady state. […] It is not certain that the steady state attained in the OFF rate reactions actually represents an equilibrium where OFF rates are now equal to ON rates. Because substrate and inhibitors bind in the same site, the high concentration of substrate present may competitively trap the inhibitor and prevent it from binding again. To be sure that improvement in ON rates is being taken into account, the ON and OFF rate ratios were multiplied together and the product is termed the “insensitivity parameter”. […] The variants in Table 9 were grouped according to the parameter in which they are improved compared to wild type. The sequence positions are numbered according to the wild-type maize amino acid sequence of SEQ ID 1. Some substitutions are effective in multiple contexts, as discussed in the next section.

[3] = system: maize HPPD; test: HPPD activity, coupled assay with HGD at 320 nm; substrate saturation kinetics (KM, kcat); type: biochemical; details: maize HPPD, wt and variant
Excerpt: HPPD catalyzes the conversion of 4-hydroxyphenylpyruvate (HPP) to homogentisate. See, FIG. 1. […] However, the product of the ensuing reaction in tyrosine metabolism, maleylacetoacetate, absorbs strongly at 320 nm. Furthermore, the enzyme catalyzing that reaction is also a dioxygenase having similar mechanism and buffer requirements as HPPD, making homogentisate dioxygenase (HGD) an ideal partner in a coupled assay, as shown.
The HDG gene from Pseudomonas aeruginosa (Amaya (2004) Arch Biochem Biophys 421, 135-142) was cloned into pVER7062 and electroporated into E. coli strain BL21(DE3). The enzyme was produced by methods similar to those described for HPPD. The purified enzyme has a KM for homogentisate of 23 uM and a kcat of 100/sec, properties highly suited for instantly converting the homogentisate produced by HPPD to maleylacetoacetate.
HPPD activity was measured by placing an aliquot (e.g., 6 ul) of the substrate HPP at 50-fold the desired final concentration into the wells of a low UV-absorbing assay plate. Reactions were started by adding a mixture (e.g., 294 ul) containing 25 mM Hepes, pH 7, 2 mM ascorbate, 10 uM FeSO4, 1 to 100 uM HPP, 50 nM HGD and 5 to 240 nM HPPD. Absorbance at 320 nm was monitored continuously in a plate-reading spectrophotometer (Spectramax, Molecular Devices).
The catalytic performance of wild-type HPPD and variants generated by shuffling was assessed by determining the substrate saturation parameters. The Michaelis-Menten kinetics protocol of the Spectramax software was customized for HPP concentrations ranging from 3.33 uM to 100 uM, or up to 1 mM if required. Reaction rates were measured as described above for each concentration of HPP. The software returns values of KM and Vmax using the Lineweaver-Burke transformation of the Michaelis-Menten equation.

[4] = system: S. bicolor HPPD; test: ON/OFF rate ratio insensitivity parameters of HPPD with maize motif substitutions; type: biochemical, Sorghum bicolor
Protocol: [formula] Higher KD (reduced affinity or increased insensitivity) can be attained with a numerically smaller ON rate, a larger OFF rate or both. […] The ratio of the reaction rate with inhibitor to that without inhibitor during the 70 to 90 second interval of the reaction was termed the “ON rate ratio”. […] Incubations with the same concentrations of enzyme but no mesotrione were done in parallel. After 1 hr at room temperature, 5 to 10 ul of the enzyme-inhibitor complex was dispensed into the wells of the assay plate. Reactions were started with the addition of 290 to 295 ul of 25 mM Hepes, pH 7, 2 mM ascorbate, 10 uM FeSO4, 100 uM HPP and 50 nM HGD. The reactions were monitored at 320 nm for 12 min. Reaction velocity accelerates as inhibitor is released from the enzyme until a steady state is reached, during which the reaction velocity is constant. The ratio of the steady state rate in mixtures containing mesotrione (or other herbicidal inhibitor) to the initial velocity of mixtures lacking inhibitor is termed the “OFF rate ratio”. Another parameter to record is the time span required for the reactions with inhibitor to reach the steady state. […] It is not certain that the steady state attained in the OFF rate reactions actually represents an equilibrium where OFF rates are now equal to ON rates. Because substrate and inhibitors bind in the same site, the high concentration of substrate present may competitively trap the inhibitor and prevent it from binding again. To be sure that improvement in ON rates is being taken into account, the ON and OFF rate ratios were multiplied together and the product is termed the “insensitivity parameter”.

| Molecule | Soybean Response (% Injury) ([1]; rate 105 g ai/ha) [%] | Soybean Response (% Injury) ([1]; rate 210 g ai/ha) [%] | Soybean Response (% Injury), Null ([1]; rate 105 g ai/ha) [%] | Soybean Response (% Injury), Null ([1]; rate 210 g ai/ha) [%] | Soybean Response (% Injury), Positive ([1]; rate 105 g ai/ha) [%] | Soybean Response (% Injury), Positive ([1]; rate 210 g ai/ha) [%] | Soybean Response (% Injury) ([1]; rate 26.25 g ai/ha) [%] | Soybean Response (% Injury), Null ([1]; rate 26.25 g ai/ha) [%] | Soybean Response (% Injury), Positive ([1]; rate 26.25 g ai/ha) [%] | other results |
| --- | --- | --- | --- | --- | --- | --- | --- | --- | --- | --- |
| CS(=O)(=O)c1ccc(C(=O)C2C(=O)CCCC2=O)c(Cl)c1COCC(F)(F)F [Tembotrione] | 70 | 78 | 75 | 75 | 40 | 33 |  |  |  |  |
| CS(=O)(=O)c1cc(C(F)(F)F)ccc1C(=O)c1cnoc1C1CC1 [Isoxaflutole] |  |  |  |  |  |  | 72 | 78 | 5 | Soybean Response (% Injury) ([1]; rate 13.12 g ai/ha): 70%; Soybean Response (% Injury), Null ([1]; rate 13.12 g ai/ha): 80%; Soybean Response (% Injury), Positive ([1]; rate 13.12 g ai/ha): 15% |
| CS(=O)(=O)c1ccc(C(=O)C2C(=O)CCCC2=O)c([N+](=O)[O-])c1 [Mesotrione] | 65 | 75 | 80 | 83 | 10 | 20 |  |  |  |  |
| Cc1c(C(=O)c2cnn(C)c2O)ccc(S(C)(=O)=O)c1C1=NOCC1 [Topramezone] |  |  |  |  |  |  | 78 | 75 | 5 | Soybean Response (% Injury) ([1]; rate 52.5 g ai/ha): 78%; Soybean Response (% Injury), Null ([1]; rate 52.5 g ai/ha): 78%; Soybean Response (% Injury), Positive ([1]; rate 52.5 g ai/ha): 20% |
| SEQ ID NO: 1 (protein, Zea mays) MGPTPTAAAAGAAVAAASAAEQAAFRLVGHRNFVRFNPRSDRFHTLAFHHVELWCADAASAAGRFSFGLGAPLAARSDLSTGNSAHASLLLRSGSLSFLFTAPYAHGADAATAALPSFSAAAARRFAADHGLAVRAVALRVADAEDAFRASVAAGARPAFGPVDLGRGFRLAEVELYGDVVLRYVSYPDGAAGEPFLPGFEGVASPGAADYGLSRFDHIVGNVPELAPAAAYFAGFTGFHEFAEFTTEDVGTAESGLNSMVLANNSENVLLPLNEPVHGTKRRSQIQTFLDHHGGPGVQHMALASDDVLRTLREMQARSAMGGFEFMAPPTSDYYDGVRRRAGDVLTEAQIKECQELGVLVDRDDQGVLLQIFTKPVGDRPTLFLEIIQRIGCMEKDEKGQEYQKGGCGGFGKGNFSQLFKSIEDYEKSLEAKQAAAAAAAQGS |  |  |  |  |  |  |  |  |  | OFF ratio ([2]; Mesotrione): 0.255; ON ratio ([2]; Mesotrione): 0.189; ON × OFF Value ([2]; Mesotrione): 0.048; OFF ratio ([2]; Tembotrione): 0.037; ON ratio ([2]; Tembotrione): 0.232; ON × OFF Value ([2]; Tembotrione): 0.0087; Km [3]: 5.2 µM; kcat [3]: 201 |
| GE010883: Sorghum bicolor variant HPPD with maize motif substitutions, SEQ ID NO: 459 (protein, HPPD variant) MPPTPTTAAATGAAVAAASAEQAAFRLVGHRNFVRVNPRSDRFHTLAFHHVELWCADAASAAGRFSFGLGAPLAARSDLSTGNTAHASLLLRSGALAFLFTAPYAHGADAATASLPSFSAAEARRFAADHGLAVRAVALRVADAEDAFRASVAAGARPAFEPVELGLGFRLAEVELYGDVVLRYVSYPDDADASFLPGFVGVTSPGAADYGLRRFDHIVGNVPELAPAAAYMAGFTGFHEFAEFTAEDVGTTESGLNSMALANNAENVLLPLNEPVHGTKRRSQIQTYLDHHGGPGVQHIALASDDVLRTLREMQARSAMGGFEFLPPPLSEYYDGVRRCAGDVLTEAQIKECQELGVMVDRDDQGVLLQIFTKPVGDRPTLFLEIIQRIGCMEKDEKGQEYQKGGCGGFGKGNFGQLFKSIEDYEKSLEAKQAAAAQGS |  |  |  |  |  |  |  |  |  | improvement of insensitivity vs native protein ([4]; mesotrione): 6.13 fold; improvement of insensitivity vs native protein ([4]; tembotrione): 7.71 fold |
